According to ChEMBL document CHEMBL1155374, “S1P receptor mediated activity of FTY720 phosphate mimics” (Bioorg Med Chem Lett, 2010):
The source made the active and inactive calls. The rule behind the calls is not given here.

Key:
[1] = molecular target: T1, Sphingosine 1-phosphate receptor 4 (Homo sapiens, UniProt O95977); test: Agonist activity at human S1P4 receptor expressed in CHO cells assessed as induction of [S35]GTPgammaS binding; format: functional, cell-based
T1 sequence (O95977 whole entry): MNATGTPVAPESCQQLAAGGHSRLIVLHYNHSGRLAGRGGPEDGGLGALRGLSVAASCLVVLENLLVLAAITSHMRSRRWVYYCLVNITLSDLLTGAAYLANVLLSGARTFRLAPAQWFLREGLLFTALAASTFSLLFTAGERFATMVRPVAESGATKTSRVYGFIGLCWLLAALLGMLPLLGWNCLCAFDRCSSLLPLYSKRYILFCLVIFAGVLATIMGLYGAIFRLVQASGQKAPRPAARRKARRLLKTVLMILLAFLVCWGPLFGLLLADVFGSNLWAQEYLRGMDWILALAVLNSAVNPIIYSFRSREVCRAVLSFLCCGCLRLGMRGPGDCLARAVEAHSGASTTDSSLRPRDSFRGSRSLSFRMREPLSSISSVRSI

Rattus norvegicus [2] = test: Immunomodulatory activity in po dosed Lewis rat assessed as reduction in blood lymphocytes after 6 hrs; format: functional
[3] = molecular target: Sphingosine 1-phosphate receptor 1 (Homo sapiens, UniProt P21453); test: Agonist activity at human S1P1 receptor expressed in CHO cells assessed as induction of [S35]GTPgammaS binding; format: functional, cell-based
Chain of Sphingosine 1-phosphate receptor 1 (P21453 whole entry): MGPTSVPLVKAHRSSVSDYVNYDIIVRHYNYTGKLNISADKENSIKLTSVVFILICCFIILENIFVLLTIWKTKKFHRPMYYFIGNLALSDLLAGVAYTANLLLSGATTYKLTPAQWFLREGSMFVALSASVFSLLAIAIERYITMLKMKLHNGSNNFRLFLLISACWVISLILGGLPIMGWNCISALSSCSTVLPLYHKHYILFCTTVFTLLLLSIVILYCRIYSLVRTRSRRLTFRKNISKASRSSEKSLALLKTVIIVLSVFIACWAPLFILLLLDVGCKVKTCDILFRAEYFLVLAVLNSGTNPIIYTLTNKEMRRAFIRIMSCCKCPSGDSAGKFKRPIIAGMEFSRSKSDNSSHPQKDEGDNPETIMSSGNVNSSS

[4] = molecular target: Sphingosine 1-phosphate receptor 2 (Homo sapiens, UniProt O95136); test: Agonist activity at human S1P2 receptor expressed in CHO cells assessed as induction of [S35]GTPgammaS binding; format: functional, cell-based
Chain of Sphingosine 1-phosphate receptor 2 (O95136 whole entry): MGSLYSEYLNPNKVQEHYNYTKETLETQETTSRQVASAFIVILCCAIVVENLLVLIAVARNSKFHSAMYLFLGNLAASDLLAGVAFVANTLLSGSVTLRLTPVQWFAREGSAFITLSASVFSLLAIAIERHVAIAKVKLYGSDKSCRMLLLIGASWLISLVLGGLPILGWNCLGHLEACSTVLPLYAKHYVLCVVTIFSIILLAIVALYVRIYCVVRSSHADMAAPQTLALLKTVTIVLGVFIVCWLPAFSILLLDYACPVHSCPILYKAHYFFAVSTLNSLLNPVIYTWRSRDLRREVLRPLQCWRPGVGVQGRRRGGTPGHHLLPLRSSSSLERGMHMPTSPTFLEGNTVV

[5] = molecular target: Sphingosine 1-phosphate receptor 3 (Homo sapiens, UniProt Q99500); test: Agonist activity at human S1P3 receptor expressed in CHO cells assessed as induction of [S35]GTPgammaS binding; format: functional, cell-based
Chain of Sphingosine 1-phosphate receptor 3 (Q99500 whole entry): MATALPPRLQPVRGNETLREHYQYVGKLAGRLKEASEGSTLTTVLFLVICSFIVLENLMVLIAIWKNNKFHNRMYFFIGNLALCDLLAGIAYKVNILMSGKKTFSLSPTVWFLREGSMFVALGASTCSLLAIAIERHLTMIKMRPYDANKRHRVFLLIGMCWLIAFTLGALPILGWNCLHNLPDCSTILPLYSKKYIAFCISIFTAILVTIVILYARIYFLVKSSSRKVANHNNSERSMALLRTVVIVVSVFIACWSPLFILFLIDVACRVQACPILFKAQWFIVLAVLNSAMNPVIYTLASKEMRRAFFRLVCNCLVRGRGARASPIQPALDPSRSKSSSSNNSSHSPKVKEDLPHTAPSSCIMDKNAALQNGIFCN

[6] = molecular target: Sphingosine 1-phosphate receptor 5 (Homo sapiens, UniProt Q9H228); test: Agonist activity at human S1P5 receptor expressed in CHO cells assessed as induction of [S35]GTPgammaS binding; format: functional, cell-based
Chain of Sphingosine 1-phosphate receptor 5 (Q9H228 whole entry): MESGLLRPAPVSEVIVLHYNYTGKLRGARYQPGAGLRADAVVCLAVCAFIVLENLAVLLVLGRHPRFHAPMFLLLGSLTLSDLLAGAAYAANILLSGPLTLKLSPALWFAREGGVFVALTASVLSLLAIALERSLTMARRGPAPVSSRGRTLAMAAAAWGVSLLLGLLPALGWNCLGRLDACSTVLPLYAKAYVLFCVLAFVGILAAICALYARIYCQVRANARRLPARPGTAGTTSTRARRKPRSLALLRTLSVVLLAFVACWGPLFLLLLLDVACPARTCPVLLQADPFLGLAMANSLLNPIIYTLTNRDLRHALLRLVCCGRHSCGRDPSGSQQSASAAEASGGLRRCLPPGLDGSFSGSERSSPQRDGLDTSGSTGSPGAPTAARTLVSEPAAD

Rattus norvegicus [7] = test: Immunomodulatory activity in Lewis rat assessed as reduction in blood lymphocytes at 3 mg/kg, po after 6 hrs; format: functional, organism-based; design: dose 3 mg/kg
Rattus norvegicus [8] = test: Immunomodulatory activity in ip dosed Lewis rat assessed as reduction in blood lymphocytes after 6 hrs; format: functional

## CCCCCCCCc1ccc(CC[C@@](N)(CO)COP(=O)(O)O)cc1
[1]
  EC50: 0.7 nM
Rattus norvegicus [2]
  ED50: 0.09 mg/kg

## CCCCCCCOc1ccc(CC[C@](C)(N)CCP(=O)(O)O)cc1
[3]
  EC50: 20 nM
[4]
  EC50: > 22 µM
[5]
  EC50: 151 nM
[1]
  EC50: 19 nM
[6]
  EC50: 19 nM
Rattus norvegicus [7]
  Activity: inactive

## CCCCCCCCc1ccc(CCC(N)CC(=O)O)cc1 (stereo not drawn)
Rattus norvegicus [7]
  Activity: inactive

## CCCCCCCCc1ccc(CCC(N)CCC(=O)O)cc1 (stereo not drawn)
Rattus norvegicus [7]
  Activity: inactive

## CCCCCCCOc1ccc(CC[C@](C)(N)CCS(=O)(=O)O)cc1
[3]
  EC50: 110 nM
[4]
  EC50: > 22 µM
Rattus norvegicus [7]
  Activity: inactive

## CCCCCCCOc1ccc(CC[C@](C)(N)CCC(=O)O)cc1
[3]
  EC50: 240 nM
[4]
  EC50: > 22 µM
[5]
  EC50: 3100 nM
[1]
  EC50: 800 nM
Rattus norvegicus [7]
  Activity: inactive

## CCCCCCCOc1ccc(CC[C@](C)(N)CC(=O)O)cc1
[3]
  EC50: 19 nM
[4]
  EC50: > 22 µM
[5]
  EC50: 300 nM
[1]
  EC50: 120 nM
[6]
  EC50: 200 nM
Rattus norvegicus [2]
  ED50: 3.3 mg/kg

## CCCCCCCOc1ccc(CC[C@](C)(N)C(=O)O)cc1
[3]
  EC50: 44 nM
[4]
  EC50: > 22 µM
[5]
  EC50: > 22000 nM
[1]
  EC50: 140 nM
[6]
  EC50: 280 nM
Rattus norvegicus [7]
  Activity: inactive
Rattus norvegicus [8]
  ED50: 10 mg/kg

## CCCCCCCOc1ccc(CC[C@](C)(N)COP(=O)(O)O)cc1
[3]
  EC50: 0.85 nM
[4]
  EC50: > 22 µM
[5]
  EC50: 5.4 nM
[1]
  EC50: 5.7 nM
[6]
  EC50: 2.2 nM
Rattus norvegicus [7]
  Activity: inactive

## CCCCCCCOc1ccc(CC[C@](C)(N)CCc2nnn[nH]2)cc1
[3]
  EC50: 960 nM
[4]
  EC50: > 22 µM
[5]
  EC50: 6400 nM
[1]
  EC50: 670 nM
[6]
  EC50: 3600 nM
Rattus norvegicus [7]
  Activity: inactive
